Values quoted from earlier work in US9695131B2, “Substituted uracils as chymase inhibitors” (Bayer Pharma Aktiengesellschaft, priority 2013, dated 2017).

Tested on: hamsters with myocardial infarction

SMILES: CCOc1ccccc1CC1C(=O)N(C(=O)NC(c2ccc(C)cc2)c2ccc(C)cc2)C1Oc1ccc(C(=O)O)cc1 (stereo not drawn) [BCEAB]
- chymase activity: reduced
- haemodynamics: improved
- mortality: reduced
